This test deals with recombinant human CCR5 receptor (Homo sapiens, UniProt P51681). The test is described as follows: MIP-1α radioligand binding assay (scintillation proximity). The following applies: displacement of 0.1 nM iodinated MIP-1α; membranes of Chinese hamster ovary cells expressing recombinant human CCR5; average if tested more than once. As to the method: The ability of compounds to inhibit the binding of MIP-1α was assessed by an in vitro radioligand binding assay. Membranes were prepared from Chinese hamster ovary cells which expressed the recombinant human CCR5 receptor. These membranes were incubated with 0.1 nM iodinated MIP-1α, scintillation proximity beads and various concentrations of the compounds of the invention in 96-well plates. The amount of iodinated MIP-1α bound to the receptor was determined by scintillation counting. Competition curves were obtained for compounds and the concentration of compound which displaced 50% of bound iodinated MIP-1α was calculated (IC50).
Chain of recombinant human CCR5 receptor (P51681 whole entry): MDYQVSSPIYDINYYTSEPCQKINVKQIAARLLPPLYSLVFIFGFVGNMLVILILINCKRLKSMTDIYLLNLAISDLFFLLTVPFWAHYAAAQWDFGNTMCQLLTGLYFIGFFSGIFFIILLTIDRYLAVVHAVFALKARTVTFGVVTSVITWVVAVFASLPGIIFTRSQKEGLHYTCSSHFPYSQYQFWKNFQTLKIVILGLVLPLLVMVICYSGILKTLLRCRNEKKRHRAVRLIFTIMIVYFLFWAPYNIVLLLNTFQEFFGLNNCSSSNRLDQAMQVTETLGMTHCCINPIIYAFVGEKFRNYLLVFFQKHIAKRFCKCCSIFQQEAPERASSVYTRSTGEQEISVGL
In Table IV the results are presented as Pic50 values. A Pic50 value is the negative log (to base 10) of the IC50 result, so an IC50 of 1 μM (that is 1×10^−6M) gives a Pic50 of 6. If a compound was tested more than once then the data below is an average of the probative tests results.

For orientation: pIC50 means −log10 of the IC50, conventionally taken in molar units.

pIC50: −log10 of the molar value.

In the case of `CS(=O)(=O)c1ccc(NC(=O)CC2CCN(CC[C@@H](c3ccccc3)c3ccc(S(C)(=O)=O)cc3)CC2)cc1` [Table IV Compound 1, (S) N-(4-methanesulphonylphenyl)-1-[3-phenyl-3-(4-methanesulphonylphenyl)-propyl]piperidin-4-yl acetamide], the pIC50 is 9.06.
Then `CS(=O)(=O)N1CCC(C(CCN2CCC(CC(=O)Nc3ccc(F)cc3)CC2)c2ccccc2)CC1` (centres unmarked) [Table I Compound 6], with 8.25; and `CS(=O)(=O)c1ccc(CNC(=O)CCC2CCN(CCC(c3ccccc3)C3CCN(S(C)(=O)=O)CC3)CC2)cc1` (single isomer, unassigned) [Table V Compound 3], with 7.05.
In the case of `CS(=O)(=O)c1ccc(NC(=O)CC2CCN(CCC(c3ccccc3)C3CCN(C(=O)c4ccc(Cl)cc4)CC3)CC2)cc1` (centres unmarked) [Table I Compound 5], the pIC50 was 8.88.
The value for `CS(=O)(=O)c1ccc(NC(=O)CC2CCN(CCC(c3ccccc3)N3CCN(c4ccccc4)CC3)CC2)cc1` (centres unmarked) [Table I Compound 3] was 7.92.

The values above are taken from US20060069120A1, “Novel piperidine derivaties as modulators of chemokine receptor ccr5” (priority 2002, published 2006).
